According to ChEMBL document CHEMBL1135169, “4,4-Disubstituted cyclohexylamine NK(1) receptor antagonists I” (Bioorg Med Chem Lett, 2002):

Experiments:
[1] = target: T1, Substance-P receptor (Homo sapiens, UniProt P25103); experiment: Displacement of [125I]-labeled substance P from the cloned Tachykinin receptor 1
[2] = target: T1, Substance-P receptor; experiment: Tested for inhibitory concentration expressed as displacement of [125I]-labeled substance P from the cloned Tachykinin receptor 1 expressed in CHO cells at dosage of 1000 nM; assay type: cell-based
[3] = tested on: Gerbillinae; experiment: Inhibitory activity when the NK1 agonist challenge was given 2 hr after dosing at 3 mg/kg, iv; assay type: functional
[4] = tested on: Gerbillinae; experiment: Inhibitory dose required to produce blockade of foot-tapping activity induced by central infusion of NK1-agonist GR-73632; assay type: functional; conditions: read-out: ID50 (the source's name)
[5] = tested on: Gerbillinae; experiment: Inhibitory dose after 2 hours required to produce blockade of foot-tapping activity induced by central infusion of NK1-agonist GR-73632; assay type: functional; conditions: read-out: ID50 (the source's name)
[6] = tested on: Gerbillinae; experiment: Inhibitory dose after 24 hours required to produce blockade of foot-tapping activity induced by central infusion of NK1-agonist GR-73632; assay type: functional; conditions: read-out: ID50 (the source's name)
[7] = target: T1, Substance-P receptor; experiment: Tested for inhibitory concentration expressed as displacement of [125I]-labeled substance P from the cloned human Tachykinin receptor 1 expressed in CHO cells; assay type: cell-based

T1 sequence (P25103 whole entry): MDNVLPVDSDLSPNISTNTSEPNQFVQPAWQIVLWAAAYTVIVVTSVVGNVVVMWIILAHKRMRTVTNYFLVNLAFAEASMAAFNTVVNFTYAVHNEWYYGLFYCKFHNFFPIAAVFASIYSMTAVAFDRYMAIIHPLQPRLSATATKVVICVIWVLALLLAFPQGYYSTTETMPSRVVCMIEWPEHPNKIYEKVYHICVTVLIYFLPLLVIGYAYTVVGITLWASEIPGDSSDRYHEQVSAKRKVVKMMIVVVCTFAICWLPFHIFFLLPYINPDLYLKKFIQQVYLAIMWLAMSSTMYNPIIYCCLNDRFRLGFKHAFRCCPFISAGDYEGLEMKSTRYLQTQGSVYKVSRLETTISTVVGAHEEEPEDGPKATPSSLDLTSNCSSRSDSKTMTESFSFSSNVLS

| IC50 [1] | SMILES | further results |
| --- | --- | --- |
| 0.44 nM | O=C(N[C@]1(c2ccccc2)CC[C@@H](N2CCC(c3ccc(F)cc3)CC2)CC1)C(CO)c1cc(C(F)(F)F)cc(C(F)(F)F)c1 (mixture of isomers) |  |
| 0.7 nM | O=C(Cc1cc(C(F)(F)F)cc(C(F)(F)F)c1)N[C@]1(c2ccccc2)CC[C@H](N2CCC(c3ccc(F)cc3)CC2)CC1 |  |
| 0.62 nM | CC(C)(NC(=O)[C@]1(c2ccccc2)CC[C@@H](N2CCC(c3ccc(F)cc3)CC2)CC1)c1cc(C(F)(F)F)cc(C(F)(F)F)c1 |  |
| 2.5 nM | O=C(OCc1cc(C(F)(F)F)cc(C(F)(F)F)c1)[C@]1(c2ccccc2)CC[C@H](N2CCC(c3ccc(F)cc3)CC2)CC1 |  |
| 85 nM | O=C(Cc1cc(C(F)(F)F)cc(C(F)(F)F)c1)N[C@]1(c2ccccc2)CC[C@@H](N2CCC(c3ccc(F)cc3)CC2)CC1 |  |
| 59 nM | Fc1ccc(C2CCN([C@H]3CC[C@@](COCc4cc(C(F)(F)F)cc(C(F)(F)F)c4)(c4ccccc4)CC3)CC2)cc1 |  |
| 1.7 nM | Fc1ccc(C2CCN([C@H]3CC[C@](CNCc4cc(C(F)(F)F)cc(C(F)(F)F)c4)(c4ccccc4)CC3)CC2)cc1 |  |
| 0.77 nM | CC(NC(=O)[C@]1(c2ccccc2)CC[C@@H](N2CCC(c3ccc(F)cc3)CC2)CC1)c1cc(C(F)(F)F)cc(C(F)(F)F)c1 (mixture of isomers) |  |
| 5.3 nM | CC(OC[C@]1(c2ccccc2)CC[C@@H](N2CCC(c3ccc(F)cc3)CC2)CC1)c1cc(C(F)(F)F)cc(C(F)(F)F)c1 (mixture of isomers) |  |
| 150 nM | O=C(NCc1cc(C(F)(F)F)cc(C(F)(F)F)c1)[C@]1(c2ccccc2)CC[C@@H](N2CCC(c3ccc(F)cc3)CC2)CC1 |  |
| 0.35 nM | CC(NC(=O)[C@]1(c2ccccc2)CC[C@@H](N2CCC(c3ccc(F)cc3)CC2)CC1)c1cc(C(F)(F)F)cc(C(F)(F)F)c1 (stereo in doubt; (+)-29a) |  |
| 82 nM | Fc1ccc(C2CCN([C@H]3CC[C@@](CNCc4cc(C(F)(F)F)cc(C(F)(F)F)c4)(c4ccccc4)CC3)CC2)cc1 |  |
| 0.49 nM | CC(C)(C(=O)N[C@]1(c2ccccc2)CC[C@@H](N2CCC(c3ccc(F)cc3)CC2)CC1)c1cc(C(F)(F)F)cc(C(F)(F)F)c1 |  |
|  | O=C(OC[C@]1(c2ccccc2)CC[C@@H](N2CCC(c3ccc(F)cc3)CC2)CC1)c1cc(C(F)(F)F)cc(C(F)(F)F)c1 | inhibition [2]: 50% |
| 0.34 nM | O=C(NCc1cc(C(F)(F)F)cc(C(F)(F)F)c1)[C@]1(c2ccccc2)CC[C@H](N2CCC(c3ccc(F)cc3)CC2)CC1 | inhibition in vivo at 3 mg/kg [3]: 15%; ED50 [4]: 1.9 mg/kg |
| 4.2 nM | Fc1ccc(C2CCN([C@H]3CC[C@](COCc4cc(C(F)(F)F)cc(C(F)(F)F)c4)(c4ccccc4)CC3)CC2)cc1 |  |
| 0.63 nM | CC(C(=O)N[C@]1(c2ccccc2)CC[C@@H](N2CCC(c3ccc(F)cc3)CC2)CC1)c1cc(C(F)(F)F)cc(C(F)(F)F)c1 (mixture of isomers) | ED50 [5]: 0.6 mg/kg; ED50 [6]: 1.8 mg/kg; ED50 [4]: 1.7 mg/kg |
| 140 nM | O=C(OCc1cc(C(F)(F)F)cc(C(F)(F)F)c1)[C@]1(c2ccccc2)CC[C@@H](N2CCC(c3ccc(F)cc3)CC2)CC1 |  |
| 6.3 nM | O=C(NC[C@]1(c2ccccc2)CC[C@H](N2CCC(c3ccc(F)cc3)CC2)CC1)c1cc(C(F)(F)F)cc(C(F)(F)F)c1 |  |
| 0.29 nM | O=C(NC(CO)c1cc(C(F)(F)F)cc(C(F)(F)F)c1)[C@]1(c2ccccc2)CC[C@@H](N2CCC(c3ccc(F)cc3)CC2)CC1 (mixture of isomers) |  |
| 40 nM | Fc1ccc(C2CCN(C3CCC(CCCc4cc(C(F)(F)F)cc(C(F)(F)F)c4)(c4ccccc4)CC3)CC2)cc1 (mixture of isomers) |  |
| 0.75 nM | OCC(OC[C@]1(c2ccccc2)CC[C@@H](N2CCC(c3ccc(F)cc3)CC2)CC1)c1cc(C(F)(F)F)cc(C(F)(F)F)c1 (mixture of isomers) |  |
| 1.5 nM | CC(NC(=O)[C@]1(c2ccccc2)CC[C@@H](N2CCC(c3ccc(F)cc3)CC2)CC1)c1cc(C(F)(F)F)cc(C(F)(F)F)c1 (single isomer, unassigned; (-)) |  |
| 250 nM | O=C(NC[C@]1(c2ccccc2)CC[C@@H](N2CCC(c3ccc(F)cc3)CC2)CC1)c1cc(C(F)(F)F)cc(C(F)(F)F)c1 |  |
|  | FC(F)(F)c1cc(CO[C@H]2C3CCN(CC3)[C@H]2c2ccccc2)cc(C(F)(F)F)c1 | IC50 [7]: 0.2 nM |
| 120 nM | O=C(OC[C@]1(c2ccccc2)CC[C@H](N2CCC(c3ccc(F)cc3)CC2)CC1)c1cc(C(F)(F)F)cc(C(F)(F)F)c1 |  |

| SMILES | IC50 [1] | further results |
| --- | --- | --- |
| O=C(NCc1cc(C(F)(F)F)cc(C(F)(F)F)c1)C1(c2ccccc2)CCNCC1 | 130 nM |  |
